Assay results reported in patent US20110178104A1, “Anti-Heparin Compounds” (POLYMEDIX INC., priority 2010, published 2011).
Converted amounts (≈) assume the structure as drawn. Read-outs that look alike come from different tables or passages of the source.

Tests used:
[1] = tested on: isolated human erythrocytes; experiment: cells; format: cell-based; conditions: Homo sapiens, Erythrocyte, 1 h, read-out: Hemolysis EC50
Procedure, shortened: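 Test agent was serially diluted two-fold over 0.48–1000 µg/ml and incubated for 1 h at 37 °C with shaking, using erythrocytes from pooled human blood diluted in Tris-buffered saline pH 7.4 (0.22% stock). Hemolysis was measured as supernatant absorbance at 405 nm. A four-parameter logistic equation gave EC50, and melittin served as the positive control.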

fondaparinux = experiment: FXa amidolytic assay (Example 10), fondaparinux; conditions: for EC50: read-out: Fondap FXa EC50, fondaparinux 0.02 μg/mL, human antithrombin, bovine Factor Xa
Procedure: (§2) Two μl of test agent are added (range between 0.01 and 23 ug/ml) and incubated for 5 minutes at 23° C. Bovine Factor Xa was added to a final concentration of 0.636 nkat/mL and incubated for a further 10 minutes at 23° C.

Unfractionated heparin = experiment: aPTT clotting assay, UFH 0.4 U/mL in plasma (Example 10); format: biochemical; conditions: unfractionated heparin 0.4 U/mL in plasma; aPTT clotting
Procedure: aPTT clotting Assay: Unfractionated heparin was mixed with plasma at a final concentration of 0.4 U/mL (or concentration which increases aPTT time to between 120 and 300 seconds). […] The ACL Elite Hemostasis analyzer (Beckman Coulter™) was used to add aPTT reagent (HemosIL SynthASil) to supplemented plasma. Clotting was initiated by addition of CaCl2 and time to clot was recorded.

[2] = Cytotoxicity colorimetric assay, HepG2; format: cell-based, human; conditions: human, HepG2 cells, one hour in serum-free media
Procedure: (§1) This assay measures the bioreduction of a novel tetrazolium compound to a soluble formazan product by viable cells. HepG2 cells were seeded in 96 well plates at 3×10^4 cells/well in MEM medium with 10% fetal bovine serum (FBS) 24 hours prior to use. NIH/3T3 cells were seeded in 96 well plates at 2×10^4 cells/well in DMEM medium with 10% bovine calf serum (BCS) 24 hours prior to use. Cell monolayers were rinsed in serum-free media and incubated for one hour with test agent in serum-free media. After incubation, the media was replaced with serum supplemented media and live cells were measured using the Cell Titer 96 Aqueous […] Assay kit (Promega, Madison, Wis.). EC50 values were determined using a four parameter logistic equation: Y=Bottom+(Top-Bottom)/(1+10̂((LogEC50-X)*HillSlope)).

[3] = Cytotoxicity colorimetric assay, NIH/3T3; format: cell-based, mouse; conditions: mouse, NIH/3T3 cells, one hour in serum-free media
Procedure: as §1

tinzaparin = experiment: FXa amidolytic assay (Example 10), tinzaparin; conditions: read-out: Tinzap FXa EC50; tinzaparin 0.1 ug/ml; human antithrombin, bovine Factor Xa
Procedure: as §2

enoxaparin = experiment: FXa amidolytic assay (Example 10), enoxaparin; conditions: read-out: Enox FXa EC50; enoxaparin 0.1 ug/ml; human antithrombin, bovine Factor Xa
Procedure: as §2

UFH = experiment: FXa amidolytic assay (Example 10), UFH; conditions: read-out: Heparin FXa uM EC50; UFH 0.03 units/mL; human antithrombin, bovine Factor Xa
Procedure: as §2

| SMILES | EC50 ([1]; human RBC, 1 hour at 37° C.) [µg/mL] | EC50 (fondaparinux) [nM] | EC50 (Unfractionated heparin) [nM] | EC50 at 1 h [2] [µg/mL] | EC50 at 1 h [3] [µg/mL] | EC50 (tinzaparin) [nM] | EC50 (enoxaparin) [nM] | EC50 (UFH) [µM] | EC50 [1] [µg/mL] | Potent LMWH-antagonists with superior anti-fondaparinux activity (summary) (fondaparinux) |
| --- | --- | --- | --- | --- | --- | --- | --- | --- | --- | --- |
| COc1cc(OC)c(C(=O)N[C@H]2CC[C@@H](NC(=O)c3ccc(OCCCCCNC(=N)N)cc3OCCCCCNC(=N)N)CC2)cc1C(=O)N[C@H]1CC[C@@H](NC(=O)c2ccc(OCCCCCNC(=N)N)cc2OCCCCCNC(=N)N)CC1 [Compound 380] | > 1000 | 180 | 1690 | 81.3 (≈ 67.8 µM) | 43.2 (≈ 36 µM) | 71 | 89 | 0.164 |  |  |
| COc1cc(OC)c(C(=O)N[C@H]2CC[C@H](NC(=O)c3cc(C(=O)N[C@H]4CC[C@H](NC(=O)c5cc(C(=O)NCCN)c(OC)cc5OC)CC4)c(OC)cc3OC)CC2)cc1C(=O)NCCN [Compound 346] | > 1000 | 146 | 8810 | > 1000 | > 1000 | 410 | 198 | 0.772 |  |  |
| COc1cc(OC)c(C(=O)NC2CCC(NC(=O)c3cc(C(=O)NCCN)c(OC)cc3OC)CC2)cc1C(=O)O (centres unmarked) [Compound 347] |  | > 10000 | > 10000 | > 1000 | > 1000 | > 5000 | > 5000 | > 20 |  |  |
| COc1ccc(NC(=O)[C@H](CCCCN)NC(=O)c2cc(NC(=O)[C@H](CCCCN)NC(=O)c3cc(NC(=O)[C@H](CCCCN)NC(=O)c4cc(NC(=O)[C@H](CCCCN)NC(=O)c5c[nH]c6ccccc56)ccc4OC)ccc3OC)ccc2OC)cc1C(N)=O [Compound 349] | > 1000 | 129 | 2020 | 236 (≈ 186 µM) | 108 (≈ 85.1 µM) | 90 | 108 | 0.213 |  |  |
| COc1cc(OCC(N)=O)c(C(=O)N[C@H]2CC[C@H](NC(=O)c3cc(C(=O)NCCN(C)C)c(OCCCCCN)cc3OCCCCCN)CC2)cc1C(=O)N[C@H]1CC[C@H](NC(=O)c2cc(C(=O)NCCN(C)C)c(OCCCCCN)cc2OCCCCCN)CC1 [Compound 379] | > 1000 | > 10000 | 1620 | > 1000 | 650 (≈ 499 µM) | 95 | 464 | 0.13 |  |  |
| COc1ccc(NC(=O)[C@H](CCCCN)NC(=O)c2cc(NC(=O)[C@H](CCCCN)NC(=O)c3cc(NC(=O)[C@H](CCCCN)NC(=O)c4cc(NC(=O)[C@H](CCCCN)NC(=O)c5ccccc5)ccc4OC)ccc3OC)ccc2OCC(=O)O)cc1C(N)=O [Compound 354] |  | 202 | 2200 | > 1000 | > 1000 | 109 | 117 | 0.214 | > 1000 | superior anti-fondaparinux activity |
| COC(=O)c1ccc(C(=O)N[C@@H](CCCCN)C(=O)Nc2ccc(OC)c(C(=O)N[C@@H](CCCCN)C(=O)Nc3ccc(OC)c(C(=O)N[C@@H](CCCCN)C(=O)Nc4ccc(OC)c(C(=O)N[C@@H](CCCCN)C(=O)Nc5ccc(OC)c(C(N)=O)c5)c4)c3)c2)cc1 [Compound 359] | > 1000 | 115 | 1390 | > 1000 | > 1000 | 73 | 90 | 0.189 |  |  |
| COc1cc(OC)c(C(=O)N[C@H]2CC[C@@H](NC(=O)c3cc(C(=O)N[C@H]4CC[C@@H](NC(=O)c5cc(C(=O)NCCN)c(OC)cc5OC)CC4)c(OC)cc3OC)CC2)cc1C(=O)NCCN [Compound 381] | 22.4 (≈ 24.4 µM) | 493 | 2690 | 1130 (≈ 1230 µM) | 1080 (≈ 1180 µM) | 274 | 289 | 0.777 |  |  |
| COc1ccc(NC(=O)[C@H](CCCCN)NC(=O)c2cc(NC(=O)[C@H](CCCCN)NC(=O)c3cc(NC(=O)[C@H](CCCCN)NC(=O)c4cc(NC(=O)[C@H](CCCCN)NC(=O)Cc5ccccc5)ccc4OC)ccc3OC)ccc2OC)cc1C(N)=O [Compound 355] |  | 800 | 1410 | 133 (≈ 107 µM) | 52 (≈ 41.8 µM) | 67 | 95 | 0.147 | > 1000 |  |
| COc1ccc(NC(=O)[C@H](CCCCN)NC(=O)c2cc(NC(=O)[C@H](CCCCN)NC(=O)c3cc(NC(=O)[C@H](CCCCN)NC(=O)c4cc(NC(=O)[C@H](CCCCN)NC(=O)c5ccccc5)ccc4OC)ccc3OC)ccc2OC)cc1C(N)=O [Compound 353] |  | 407 | 1630 | > 1000 | ~100 (≈ 81.3 µM) | 104 | 123 | 0.198 | > 1000 |  |
| COc1ccc(NC(=O)[C@H](CCCCN)NC(=O)c2cc(NC(=O)[C@H](CCCCN)NC(=O)c3cc(NC(=O)[C@H](CCCCN)NC(=O)c4cc(NC(=O)[C@H](CCCCN)NC(=O)c5c[nH]c6ccccc56)ccc4OC)ccc3OC)ccc2OCC(=O)O)cc1C(N)=O [Compound 350] | > 1000 | 146 | 627 | 425 (≈ 324 µM) | 150 (≈ 114 µM) | 128 | 147 | 0.291 |  |  |
| COc1cc(OC)c(C(=O)Nc2ccc(NC(=O)c3cc(C(=O)NCCN(C)C)c(OCCCCCN)cc3OCCCCCN)cc2)cc1C(=O)Nc1ccc(NC(=O)c2cc(C(=O)NCCN(C)C)c(OCCCCCN)cc2OCCCCCN)cc1 [Compound 410] |  | 41 | 640 | 250 (≈ 200 µM) | 97.5 (≈ 78.1 µM) | 68 | 56 |  | > 1000 |  |
| COc1cc(OC)c(C(=O)N[C@H]2CC[C@H](NC(=O)c3cc(C(=O)N[C@H]4CC[C@H](NC(=O)c5cc(C(=O)NCCN)c(OC)cc5OC)CC4)c(OCC(N)=O)cc3OC)CC2)cc1C(=O)NCCN [Compound 390] | > 1000 | 1280 | 2080 | 892 (≈ 927 µM) | 986 (≈ 1020 µM) | 708 | 707 |  |  |  |
| COc1cc(OC)c(C(=O)N[C@H]2CC[C@H](NC(=O)c3cc(C(=O)N[C@H]4CC[C@H](NC(=O)c5cc(C(=O)NCCCN)c(OC)cc5OC)CC4)c(OC)cc3OC)CC2)cc1C(=O)NCCCN [Compound 406] | 12.1 (≈ 12.8 µM) | 113 | 2460 | 209 (≈ 220 µM) | 215 (≈ 227 µM) | 436 | 299 |  |  |  |
| COc1cc(OC)c(C(=O)N[C@H]2CC[C@H](NC(=O)c3cccc(C(=O)N[C@H]4CC[C@H](NC(=O)c5cc(C(=O)NCCN)c(OC)cc5OC)CC4)c3)CC2)cc1C(=O)NCCN [Compound 398] | > 1000 | 13900 | 4770 | 1090 (≈ 1270 µM) | > 1000 | 2040 | 2530 |  |  |  |
